Source: paper PMC3093368 (PLoS Pathogens, 2011)
Entries after “also recorded” stand apart in the source; their conditions may differ. Ends that are not written are not given here.

Experiments:
immunoproteasomes (IP) = assay: Immunoproteasomes isolated from T2.27mp cells, in 20 mM Hepes/KOH, pH 7.8, 2 mM magnesium acetate and 2 mM dithiothreitol; settings: up to 18 h
immunoproteasome (IP) = assay: Immunoproteasomes isolated from T2.27mp cells; 20 mM Hepes/KOH, pH 7.8, 2 mM magnesium acetate, 2 mM dithiothreitol; settings: human, up to 18 h
[1] = In vitro immunoproteasome digestion of 27mer peptides, MS/MS analysis; assay type: in vitro ADME; settings: immunoproteasomes isolated from T2.27mp cells, 3 nmol 27mer, 1 µg immunoproteasome; for metabolised at 0.5 h, 30 µM: 100 µl 20 mM Hepes/KOH pH 7.8, 2 mM Mg acetate, 2 mM DTT, RP-HPLC ESI MS intensity, 30 min, read-out: substrate degraded after 30 min; for metabolised at 2 h, 30 µM: Hepes/KOH pH 7.8, MS intensity, read-out: substrate degraded after 2 h
Protocol: Immunoproteasomes were isolated from T2.27mp cells (that stably express all three immunosubunits) as previously described. Purified proteasomes were analyzed by SDS-PAGE. The yield was calculated at 90–95%. The 27mer peptides encompassing Q9VF/5D or Q9VF/5N were synthesized using standard Fmoc method on an Applied Biosystems 433A automated synthesizer. The peptides were purified by HPLC and analyzed by mass spectrometry. Three nmol of peptides were digested in vitro using 1 µg of proteasomes (for 0.5, 1, 2, 4, 8 and 18 h) in 100 µl of buffer containing 20 mM Hepes/KOH, pH 7.8, 2 mM magnesium acetate and 2 mM dithiothreitol. Reactions were stopped by the addition of trifluoroacetic acid to a final concentration of 0.3%. The digestions were analyzed, by mass spectrometry (RP-HPLC ESI) and the products were identified by MS/MS.

[2] = test system: HIVLAI-infected T1-B7 cells / Q9VF/5D-specific CTLs; assay: Mouse CTL recognition of HIV-infected T1-B7 cells after epoxomicin treatment (IFNγ-ELISpot); assay type: cell-based
Protocol: Mouse CTL lines were derived from splenocytes of peptide immunized HLA-B*07^mα3 transgenic mice. In brief, these mice express HLA-B*0702 heavy chain with a murine α3 domain and their H-2K^b and H-2D^b class Ia genes have been inactivated. Cytolytic activity of splenocyte cultures was first assessed in a^51Cr release assay. Peptide specific CTL lines were stimulated in vitro (5 µg/mL of peptide) and cultured in RPMI 1640 medium supplemented with 10% FCS, 0.5 µM 2-β-mercaptoethanol (Sigma), 100 IU/mL penicillin and 100 µg/mL streptomycin (Gibco-BRL). Ten days later, 2×10^3, 400 and 80 CTLs in triplicates were stimulated by 10^5 HIV-1-infected T1-B7 cells and IFNγ release was detected by ELISpot assay. Cross-reactivity of Q9VF/5D- and Q9VF/5N-specific CTLs was tested in IFNγ-ELISpot and Cr^51-release assays using T1-B7 peptide-loaded cells. Mouse CTL lines specific for the HLA-B*0702-restricted HIV-1 Nef-derived epitope F10LR (Nef 68[…]77; [22]) were used as controls. When stated, HIV-infected T1-B7 cells were treated with epoxomicin (6 h, 1 µg/ml, Calbiochem). To remove residual MHC-peptide complexes, epoxomycin-exposed cells were treated with a citrate-phosphate buffer (pH 3.3) containing 1% BSA and washed twice, prior co-culture with CTLs for an additional 8 h.

| Compound | cleaved bond (immunoproteasomes (IP)) | metabolised at 0.5 h, 30 µM [1] [%] | metabolised at 2 h, 30 µM [1] [%] | other results |
| --- | --- | --- | --- | --- |
| MGKSSRREGFQPRSNTHVFSIIRRSHP | F19-S20, 30 min; also recorded: S4-S5; also recorded: F10-Q11, 1 h; also recorded: I22-R23; also recorded: R24-S25; also recorded: N15-T16, major, 30 min |  |  | fragment found (immunoproteasome (IP)): Q9VF (Q11-F19), minor |
| MGKSSRREGFQPRSDTHVFSIIRRSHP | F10-Q11, major; also recorded: F19-S20, major, 30 min; also recorded: I22-R23, major; also recorded: R24-S25, major; also recorded: S14-D15; also recorded: S4-S5; also recorded: R6-R7; also recorded: R23-R24 |  |  |  |
| MGKSSRREGFQPRSNTHVFSIIRRSHP [Q9VF/5N substrate] |  | 24 | 96 |  |
| MGKSSRREGFQPRSDTHVFSIIRRSHP [Q9VF/5D substrate] |  | 24 | 96 |  |
| CC[C@H](C)[C@H](NC(=O)[C@H]([C@@H](C)CC)N(C)C(C)=O)C(=O)N[C@H](C(=O)N[C@@H](CC(C)C)C(=O)[C@@]1(C)CO1)[C@@H](C)O [Epoxomicin, epoxomicin] |  |  |  | effect on activation of Q9VF/5D-specific CTLs by HIVLAI-infected cells ([2]; epoxomicin 1 µg/ml, 6 h at 37°C, citrate-phosphate buffer pH 3.3 wash, 8 h co-culture, IFNγ-ELISpot, representative of three CTL clones): abolished the capacity of HIVLAI-infected cells to activate Q9VF/5D-specific CTLs; effect on MHC-density and presentation of exogenous peptide ([2]; epoxomicin-treated T1-B7 cells, FACS, exogenous peptide 0.1 µg/ml): affected neither MHC-density |
